# Test results taken from patent US10709692B2, “Isoxazolidine derived inhibitors of receptor interacting protein kinase 1 (RIPK1)” (Denali Therapeutics Inc., priority 2015, dated 2020).
# Molecular target: T1, receptor interacting protein kinase 1 (GST-hRIPK1 (8-327)) (Homo sapiens, UniProt Q13546)
# T1 construct: GST-hRIPK1 (8-327) enzyme was generated by Proteros GmbH by Baculovirus expression system
# T1 sequence (Q13546 8-327): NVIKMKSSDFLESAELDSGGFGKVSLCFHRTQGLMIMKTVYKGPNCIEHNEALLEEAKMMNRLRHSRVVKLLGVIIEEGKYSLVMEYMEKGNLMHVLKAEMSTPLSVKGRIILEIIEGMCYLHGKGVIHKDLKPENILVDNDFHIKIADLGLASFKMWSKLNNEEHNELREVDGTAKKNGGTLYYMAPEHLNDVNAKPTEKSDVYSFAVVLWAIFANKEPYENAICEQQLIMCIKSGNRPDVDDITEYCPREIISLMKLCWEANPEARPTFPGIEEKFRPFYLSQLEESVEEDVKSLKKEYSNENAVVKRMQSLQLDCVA
# Experiment: Fluorescent Polarization Binding (FP Binding) assay
# Conditions: 10 nM GST-hRIPK1 (8-327), 5 nM fluorescent-labeled ligand, 30 min at RT
# Summary of the method: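 Displacement of 5 nM fluorescent ligand from 10 nM GST-hRIPK1 (8-327), 30 min at room temperature in pH 7.5 HEPES buffer, 1% DMSO. Fluorescence polarization read (ex 531/em 595 nm); IC50 fitted from percent inhibition and averaged over at least two independent experiments.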
row,IC50 [nM],SMILES
1,< 1000,"Cc1ncc([C@@H]2CCON2C(=O)C(C)(C)C(F)F)cn1 [Compound 126, 3,3-difluoro-2,2-dimethyl-1-[(3S)-3-(2-methylpyrimidin-5-yl)-1,2-oxazolidin-2-yl]propan-1-one]"
2,< 1000,"CC(C)(C)C(=O)N1OCC[C@H]1c1ccc(F)cn1 [Compound 127, 1-[(3S)-3-(5-fluoropyridin-2-yl)-1,2-oxazolidin-2-yl]-2,2-dimethylpropan-1-one]"
3,< 1000,"CC(C)(C)C(=O)N1OCC[C@H]1c1ccc(C(F)F)cc1 [Compound 128, 1-[(3S)-3-[4-(difluoromethyl)phenyl]-1,2-oxazolidin-2-yl]-2,2-dimethylpropan-1-one]"
4,< 1000,"CC(C)(CC#N)C(=O)N1OCC[C@H]1c1ccc(C(F)F)nc1 [Compound 131, 4-(3S)-3-[6-(difluoromethyl)pyridin-3-yl]-1,2-oxazolidin-2-yl-3,3-dimethyl-4-oxobutanenitrile]"
5,< 1000,"CC(C)(C)C(=O)N1OCC[C@H]1c1ccn2nccc2c1 [Compound 132, 2,2-dimethyl-1-[(3S)-3-{pyrazolo[1,5-a]pyridin-5-yl}-1,2-oxazolidin-2-yl]propan-1-one]"
6,< 1000,"CC(C)(C)C(=O)N1OCC[C@H]1c1cncc(F)c1 [Compound 133, 1-[(3S)-3-(5-fluoropyridin-3-yl)-1,2-oxazolidin-2-yl]-2,2-dimethylpropan-1-one]"
7,< 1000,"CC(C)(C)C(=O)N1OCC[C@@H]1c1ccc(F)cc1F [Compound 134, 1-[(3R)-3-(2,4-difluorophenyl)-1,2-oxazolidin-2-yl]-2,2-dimethylpropan-1-one]"
8,< 1000,"CC(C)(C)C(=O)N1OCC[C@H]1c1ccc(F)cc1F [Compound 135, 1-[(3S)-3-(2,4-difluorophenyl)-1,2-oxazolidin-2-yl]-2,2-dimethylpropan-1-one]"
9,< 1000,"Cc1cnc([C@@H]2CCON2C(=O)C(C)(C)C)cn1 [Compound 138, 2,2-dimethyl-1-[(3S)-3-(5-methylpyrazin-2-yl)-1,2-oxazolidin-2-yl]propan-1-one]"
10,< 1000,"CC(C)(COC(F)(F)F)C(=O)N1OCC[C@H]1c1cncc(F)c1 [Compound 139, 1-[(3S)-3-(5-fluoropyridin-3-yl)-1,2-oxazolidin-2-yl]-2,2-dimethyl-3-(trifluoromethoxy)propan-1-one]"
11,< 1000,"CC(C)(C)C(=O)N1OCC[C@H]1c1cccc2ccnn12 [Compound 140, 2,2-dimethyl-1-[(3S)-3-{pyrazolo[1,5-a]pyridin-7-yl}-1,2-oxazolidin-2-yl]propan-1-one]"
12,< 1000,"CC(C)(C)C(=O)N1OCC[C@H]1c1ccc(C#N)nc1 [Compound 143, 5-[(3S)-2-(2,2-dimethylpropanoyl)-1,2-oxazolidin-3-yl]pyridine-2-carbonitrile]"
13,< 1000,"COc1cc([C@@H]2CCON2C(=O)C(C)(C)C)ccn1 [Compound 144, 1-[(3S)-3-(2-methoxypyridin-4-yl)-1,2-oxazolidin-2-yl]-2,2-dimethylpropan-1-one]"
14,< 1000,"COc1ccc([C@@H]2CCON2C(=O)C(C)(C)C)cn1 [Compound 145, 1-[(3S)-3-(6-methoxypyridin-3-yl)-1,2-oxazolidin-2-yl]-2,2-dimethylpropan-1-one]"
15,< 1000,"CC(C)(C)C(=O)N1OCC[C@H]1c1ccccc1C#N [Compound 146, 2-[(3S)-2-(2,2-dimethylpropanoyl)-1,2-oxazolidin-3-yl]benzonitrile]"
16,< 1000,"CC(C)(C)C(=O)N1OCC[C@H]1c1cccc(C#N)c1 [Compound 147, 3-[(3S)-2-(2,2-dimethylpropanoyl)-1,2-oxazolidin-3-yl]benzonitrile]"

row,IC50 [nM],SMILES
1,< 1000,"CC(C)(C)C(=O)N1OCC[C@H]1c1ccc(C2CC2)nc1 [Compound 148, 1-[(3S)-3-(6-cyclopropylpyridin-3-yl)-1,2-oxazolidin-2-yl]-2,2-dimethylpropan-1-one]"
2,1000 to 10000,"CC(C)(C)C(=O)N1OCC[C@H]1c1ccnc(N)c1 [Compound 149, 1-[(3S)-3-(2-aminopyridin-4-yl)-1,2-oxazolidin-2-yl]-2,2-dimethylpropan-1-one]"
3,< 1000,"CC(C)(C)C(=O)N1OCC[C@H]1c1cc(C#N)ccc1F [Compound 150, 3-[(3S)-2-(2,2-dimethylpropanoyl)-1,2-oxazolidin-3-yl]-4-fluorobenzonitrile]"
4,< 1000,"CC(C)(C)C(=O)N1OCC[C@H]1c1ccc(C#N)c(F)c1 [Compound 151, 4-[(3S)-2-(2,2-dimethylpropanoyl)-1,2-oxazolidin-3-yl]-2-fluorobenzonitrile]"
5,< 1000,"Cc1ccc([C@@H]2CCON2C(=O)C(C)(C)C)cn1 [Compound 152, 2,2-dimethyl-1-[(3S)-3-(6-methylpyridin-3-yl)-1,2-oxazolidin-2-yl]propan-1-one]"
6,< 1000,"CC(C)(C)C(=O)N1OCC[C@H]1c1ccc(F)c(C#N)c1 [Compound 153, 5-[(3S)-2-(2,2-dimethylpropanoyl)-1,2-oxazolidin-3-yl]-2-fluorobenzonitrile]"
7,< 1000,"CC(C)(COC(F)F)C(=O)N1OCC[C@H]1c1ccc(C#N)cc1 [Compound 154, 4-[(3S)-2-[3-(difluoromethoxy)-2,2-dimethylpropanoyl]-1,2-oxazolidin-3-yl]benzonitrile]"
8,< 1000,"CC1(C(=O)N2OCC[C@H]2c2ccc(F)cc2)CC(F)(F)C1 [Compound 155, (3S)-2-(3,3-difluoro-1-methylcyclobutane-carbonyl)-3-(4-fluorophenyl)-1,2-oxazolidine]"
9,1000 to 10000,"CC(C)(C(=O)N1OCC[C@H]1c1ccc(F)cc1)N1CCC1 [Compound 156, 2-(azetidin-1-yl)-1-[(3S)-3-(4-fluorophenyl)-1,2-oxazolidin-2-yl]-2-methylpropan-1-one]"
10,1000 to 10000,"CC(C)(C)C(=O)N1OCCC1c1ccnnc1 (centres unmarked) [Compound 157, 2,2-dimethyl-1-[3-(pyridazin-4-yl)-1,2-oxazolidin-2-yl]propan-1-one]"
11,< 1000,"N#Cc1ccc([C@@H]2CCON2C(=O)C2(C3CC3)CC2)cc1 [Compound 158, 4-[(3S)-2-(1-cyclopropylcyclopro-panecarbonyl)-1,2-oxazolidin-3-yl]benzonitrile]"
12,< 1000,"O=C(N1OCC[C@H]1c1ccc(F)nc1)C1(C2CC2)CC1 [Compound 159, 5-[(3S)-2-(1-cyclopropylcyclopro-panecarbonyl)-1,2-oxazolidin-3-yl]-2-fluoropyridine]"
13,1000 to 10000,"O=C(C1C2COCC21)N1OCC[C@H]1c1ccc(F)nc1 (stereo partly drawn) [Compound 160, 2-fluoro-5-[(3S)-2-{3-oxabicyclo[3.1.0]hexane-6-carbonyl}-1,2-oxazolidin-3-yl]pyridine]"
14,< 1000,"[2H]C([2H])([2H])C(C(=O)N1OCC[C@H]1c1ccc(F)nc1)(C([2H])([2H])[2H])C([2H])([2H])[2H] [Compound 161, 1-[(3S)-3-(6-fluoropyridin-3-yl)-1,2-oxazolidin-2-yl]-2,2-bis(^2H3)methyI(^2H3) propan-1-one]"
15,< 1000,"CC(C)(COC(F)(F)F)C(=O)N1OCC[C@H]1c1ccc(F)nc1 [Compound 164, 1-[(3S)-3-(6-fluoropyridin-3-yl)-1,2-oxazolidin-2-yl]-2,2-dimethyl-3-(trifluoromethoxy) propan-1-one]"
16,< 1000,"CC(C)(CC#N)C(=O)N1OCC[C@H]1c1ccc(F)nc1 [Compound 165, 4-[(3S)-3-(6-fluoropyridin-3-yl)-1,2-oxazolidin-2-yl]-3,3-dimethyl-4-oxobutanenitrile]"
